Usually IC50 stands for the concentration needed to halve the response being measured. In general, melting point refers to the temperature of the solid-liquid transition.

Series [1] has as its target farnesyl protein transferase (FPTase) (Homo sapiens, UniProt P49354+P49356). Description: In vitro assay for inhibition of farnesyl protein transferase. The format is biochemical. Particulars: essentially as described in WO 98/40383, pages 33-34, read-out: IC50 FPTase inhibitory activity. How it is done:
In Vitro Assay for Inhibition of Farnesyl Protein Transferase
An in vitro assay for inhibition of farnesyl protein transferase was performed essentially as described in WO 98/40383, pages 33-34.

As for `Cn1cncc1C(N)(c1ccc(Cl)cc1)c1ccc2c(c1)c(-c1cccc(Cl)c1)nc1nnnn12` (racemic) [parent enantiomeric mixture, (±)-5-(3-chlorophenyl)-α-(4-chlorophenyl)-α-(1-methyl-1H-imidazol-5-yl)tetrazolo[1,5-a]quinazoline-7-methanamine, reference compound], the IC50 in series [1] was 1.1 nM. `Cn1cncc1C(N)(c1ccc(Cl)cc1)c1ccc2c(c1)c(-c1cccc(Cl)c1)nc1nnnn12` (single isomer, unassigned; (-)) [(−) enantiomer, (−)-5-(3-chlorophenyl)-α-(4-chlorophenyl)-α-(1-methyl-1H-imidazol-5-yl)tetrazolo[1,5-a]quinazoline-7-methanamine] returned a melting point of 178 to 180 °C. The IC50 in series [1] was found to be 0.7 nM.

For the origin of these results see patent US8318753B2, “Farnesyl transferase inhibiting 1,2-annelated quinoline enantiomer” (Janssen Pharmaceutica NV, priority 2000, dated 2012).
